Species on record: Rattus norvegicus
Assay: DrugMatrix - Regimen: Daily Repeat
Type: toxicity, organism-based, Sprague-Dawley
Set-up: regimen Daily Repeat, gender Male, age 6-8 weeks
Conditions: in vivo, po, route oral GAVAGE, vehicle .5 % CMC; for ABSOLUTE BASOPHIL / ABSOLUTE EOSINOPHIL / ABSOLUTE LYMPHOCYTE / ABSOLUTE MONOCYTE / ABSOLUTE SEGMENTED NEUTROPHIL / BASOPHIL / EOSINOPHIL / ERYTHROCYTE COUNT / HEMATOCRIT / HEMOGLOBIN / LEUKOCYTE COUNT / LYMPHOCYTE / MEAN CORPUSCULAR HEMOGLOBIN / MEAN CORPUSCULAR HEMOGLOBIN CONCENTRATION / MEAN CORPUSCULAR VOLUME / MONOCYTE / NEUTROPHIL / NUCLEATED RED BLOOD CELLS / PLATELET COUNT: tissue Blood; for ALANINE AMINOTRANSFERASE / ALBUMIN / ALKALINE PHOSPHATASE / ASPARTATE AMINOTRANSFERASE / BLOOD UREA NITROGEN / CARBON DIOXIDE / CHLORIDE / CHOLESTEROL / CREATINE PHOSPHOKINASE / CREATININE / GLUCOSE / LACTATE DEHYDROGENASE / LIPASE / PHOSPHORUS / POTASSIUM / SODIUM / TOTAL BILIRUBIN / TOTAL PROTEIN / URIC ACID: tissue Plasma
[1] = 100 mg/kg, 120 h, dose level Low, time 5 day
[2] = 501 mg/kg, 72 h, dose level High, time 3 day
[3] = 501 mg/kg, 120 h, dose level High, time 5 day

Q: What does the source list for `CCc1ccc(C(=O)C(C)CN2CCCCC2)cc1` (centres undefined) [EPERISONE]?
A: ABSOLUTE BASOPHIL [1]: 0 CELLS/uL; ABSOLUTE EOSINOPHIL [1]: 0 CELLS/uL; ABSOLUTE LYMPHOCYTE [1]: 13749 CELLS/uL; ABSOLUTE MONOCYTE [1]: 246.33 CELLS/uL; ABSOLUTE SEGMENTED NEUTROPHIL [1]: 1338 CELLS/uL; BASOPHIL [1]: 0%; EOSINOPHIL [1]: 0%; ERYTHROCYTE COUNT [1]: 5.46 x10E6/uL; HEMATOCRIT [1]: 34.27%; HEMOGLOBIN [1]: 13.2 G/DL; LEUKOCYTE COUNT [1]: 15.33 x10E3/uL; LYMPHOCYTE [1]: 89.67%; MEAN CORPUSCULAR HEMOGLOBIN [1]: 24.17 pg; MEAN CORPUSCULAR HEMOGLOBIN CONCENTRATION [1]: 38.53 G/DL; MEAN CORPUSCULAR VOLUME [1]: 62.83 fL; MONOCYTE [1]: 1.67%; NEUTROPHIL [1]: 8.67%; NUCLEATED RED BLOOD CELLS [1]: 0 /100WBC; PLATELET COUNT [1]: 1278.33 x10E3/uL; ALANINE AMINOTRANSFERASE [1]: 50 u/L; ALBUMIN [1]: 4.27 G/DL; ALKALINE PHOSPHATASE [1]: 325.67 u/L; ASPARTATE AMINOTRANSFERASE [1]: 101.33 u/L; BLOOD UREA NITROGEN [1]: 17.33 mg/dL; CARBON DIOXIDE [1]: 25.33 mmol/L; CHLORIDE [1]: 106 MEQ/L; CHOLESTEROL [1]: 66.33 mg/dL; CREATINE PHOSPHOKINASE [1]: 609 u/L; CREATININE [1]: 0.21 mg/dL; GLUCOSE [1]: 159 mg/dL; LACTATE DEHYDROGENASE [1]: 465 u/L; LIPASE [1]: 9.67 u/L; PHOSPHORUS [1]: 13.17 mg/dL; POTASSIUM [1]: 6.21 MEQ/L; SODIUM [1]: 144.2 MEQ/L; TOTAL BILIRUBIN [1]: 0.13 mg/dL; TOTAL PROTEIN [1]: 5.9 G/DL; URIC ACID [1]: 1.77 mg/dL; ABSOLUTE BASOPHIL [2]: 0 CELLS/uL; ABSOLUTE EOSINOPHIL [2]: 0 CELLS/uL; ABSOLUTE LYMPHOCYTE [2]: 13225.33 CELLS/uL; ABSOLUTE MONOCYTE [2]: 319.33 CELLS/uL; ABSOLUTE SEGMENTED NEUTROPHIL [2]: 888.67 CELLS/uL; BASOPHIL [2]: 0%; EOSINOPHIL [2]: 0%; ERYTHROCYTE COUNT [2]: 5.61 x10E6/uL; HEMATOCRIT [2]: 35.1%; HEMOGLOBIN [2]: 13.27 G/DL; LEUKOCYTE COUNT [2]: 14.43 x10E3/uL; LYMPHOCYTE [2]: 91.33%; MEAN CORPUSCULAR HEMOGLOBIN [2]: 23.63 pg; MEAN CORPUSCULAR HEMOGLOBIN CONCENTRATION [2]: 37.83 G/DL; MEAN CORPUSCULAR VOLUME [2]: 62.53 fL; MONOCYTE [2]: 2.33%; NEUTROPHIL [2]: 6.33%; NUCLEATED RED BLOOD CELLS [2]: 0 /100WBC; PLATELET COUNT [2]: 1433.33 x10E3/uL; ALANINE AMINOTRANSFERASE [2]: 58.67 u/L; ALBUMIN [2]: 3.97 G/DL; ALKALINE PHOSPHATASE [2]: 399 u/L; ASPARTATE AMINOTRANSFERASE [2]: 91.67 u/L; BLOOD UREA NITROGEN [2]: 14.33 mg/dL; CARBON DIOXIDE [2]: 25 mmol/L; CHLORIDE [2]: 103.67 MEQ/L; CHOLESTEROL [2]: 64.67 mg/dL; CREATINE PHOSPHOKINASE [2]: 345 u/L; CREATININE [2]: 0.23 mg/dL; GLUCOSE [2]: 157.67 mg/dL; LACTATE DEHYDROGENASE [2]: 414.67 u/L; LIPASE [2]: 9 u/L; PHOSPHORUS [2]: 11.17 mg/dL; POTASSIUM [2]: 6.18 MEQ/L; SODIUM [2]: 143.13 MEQ/L; TOTAL BILIRUBIN [2]: 0.2 mg/dL; TOTAL PROTEIN [2]: 5.33 G/DL; URIC ACID [2]: 2.03 mg/dL; ABSOLUTE BASOPHIL [3]: 0 CELLS/uL; ABSOLUTE EOSINOPHIL [3]: 46.67 CELLS/uL; ABSOLUTE LYMPHOCYTE [3]: 15630.33 CELLS/uL; ABSOLUTE MONOCYTE [3]: 287 CELLS/uL; ABSOLUTE SEGMENTED NEUTROPHIL [3]: 969.33 CELLS/uL; BASOPHIL [3]: 0%; EOSINOPHIL [3]: 0.33%; ERYTHROCYTE COUNT [3]: 5.98 x10E6/uL; HEMATOCRIT [3]: 36.77%; HEMOGLOBIN [3]: 13.93 G/DL; LEUKOCYTE COUNT [3]: 16.93 x10E3/uL; LYMPHOCYTE [3]: 92.33%; MEAN CORPUSCULAR HEMOGLOBIN [3]: 23.33 pg; MEAN CORPUSCULAR HEMOGLOBIN CONCENTRATION [3]: 37.93 G/DL; MEAN CORPUSCULAR VOLUME [3]: 61.5 fL; MONOCYTE [3]: 1.67%; NEUTROPHIL [3]: 5.67%; NUCLEATED RED BLOOD CELLS [3]: 0 /100WBC; PLATELET COUNT [3]: 1391 x10E3/uL; ALANINE AMINOTRANSFERASE [3]: 69 u/L; ALBUMIN [3]: 4.43 G/DL; ALKALINE PHOSPHATASE [3]: 394.33 u/L; ASPARTATE AMINOTRANSFERASE [3]: 96.33 u/L; BLOOD UREA NITROGEN [3]: 16 mg/dL; CARBON DIOXIDE [3]: 28 mmol/L; CHLORIDE [3]: 106.33 MEQ/L; CHOLESTEROL [3]: 63.33 mg/dL; CREATINE PHOSPHOKINASE [3]: 1265 u/L; CREATININE [3]: 0.3 mg/dL; GLUCOSE [3]: 145.67 mg/dL; LACTATE DEHYDROGENASE [3]: 187.33 u/L; LIPASE [3]: 9.33 u/L; PHOSPHORUS [3]: 12.2 mg/dL; POTASSIUM [3]: 6.24 MEQ/L; SODIUM [3]: 145.8 MEQ/L; TOTAL BILIRUBIN [3]: 0.2 mg/dL; TOTAL PROTEIN [3]: 6.07 G/DL; URIC ACID [3]: 1.97 mg/dL
